{
  "source": "patent US11377442B2",
  "about": "“Small molecule agonists and antagonists of NR2F6 activity” (ZANDER THERAPEUTICS, INC., priority 2016, dated 2022)",
  "key": {"PK in rat plasma": {"experiment": "PK in rat plasma", "format": "in vivo", "conditions": "for Fabs, %: PO 7.53 mg/kg vs IV 1.13 mg/kg"}, "[1]": {"experiment": "Stability in human plasma", "format": "in vitro ADME"}, "PPB": {"experiment": "PPB", "format": "in vitro ADME", "conditions": "for recovery: plasma"}, "Stability in rat plasma": {"experiment": "Stability in rat plasma", "format": "in vitro ADME"}, "P-gp (MDR1)": {"target": "T1, P-gp (MDR1) (Homo sapiens, UniProt P08183)", "T1 construct": "endogenous in cells; host or cells: Caco-2", "T1 sequence (P08183 whole entry)": "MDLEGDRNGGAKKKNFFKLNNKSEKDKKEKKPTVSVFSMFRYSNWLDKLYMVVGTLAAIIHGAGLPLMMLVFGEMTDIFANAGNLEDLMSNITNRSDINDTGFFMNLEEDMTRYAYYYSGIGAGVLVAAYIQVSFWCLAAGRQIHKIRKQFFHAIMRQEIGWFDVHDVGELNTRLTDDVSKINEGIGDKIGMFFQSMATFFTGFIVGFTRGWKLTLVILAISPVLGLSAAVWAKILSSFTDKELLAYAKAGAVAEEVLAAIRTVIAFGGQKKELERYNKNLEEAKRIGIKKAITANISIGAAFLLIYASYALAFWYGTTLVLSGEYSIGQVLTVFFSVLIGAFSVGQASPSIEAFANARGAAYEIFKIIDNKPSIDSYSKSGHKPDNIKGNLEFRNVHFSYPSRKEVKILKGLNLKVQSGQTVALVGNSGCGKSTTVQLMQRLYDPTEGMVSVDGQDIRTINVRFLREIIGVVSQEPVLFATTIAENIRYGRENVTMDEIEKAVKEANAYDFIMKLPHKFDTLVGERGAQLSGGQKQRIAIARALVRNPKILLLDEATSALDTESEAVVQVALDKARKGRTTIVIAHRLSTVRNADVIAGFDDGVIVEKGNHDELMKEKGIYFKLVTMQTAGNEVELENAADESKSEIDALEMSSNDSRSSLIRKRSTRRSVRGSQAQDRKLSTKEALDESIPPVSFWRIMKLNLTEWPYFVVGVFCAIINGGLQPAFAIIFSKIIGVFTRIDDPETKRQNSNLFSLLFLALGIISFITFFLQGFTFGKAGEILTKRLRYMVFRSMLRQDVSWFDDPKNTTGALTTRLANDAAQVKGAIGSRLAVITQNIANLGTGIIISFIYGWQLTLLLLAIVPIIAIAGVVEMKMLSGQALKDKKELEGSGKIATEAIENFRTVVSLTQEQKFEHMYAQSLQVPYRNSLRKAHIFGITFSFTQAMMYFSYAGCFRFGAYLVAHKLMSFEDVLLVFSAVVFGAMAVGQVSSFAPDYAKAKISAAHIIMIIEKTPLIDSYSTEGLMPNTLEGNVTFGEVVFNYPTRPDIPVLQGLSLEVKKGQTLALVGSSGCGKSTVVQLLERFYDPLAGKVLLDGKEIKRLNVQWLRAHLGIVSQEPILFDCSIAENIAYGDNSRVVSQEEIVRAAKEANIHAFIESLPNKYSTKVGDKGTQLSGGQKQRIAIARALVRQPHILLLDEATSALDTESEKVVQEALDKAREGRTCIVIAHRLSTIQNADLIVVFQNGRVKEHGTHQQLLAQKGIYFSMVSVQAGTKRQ", "experiment": "Caco-2 asymmetry, P-gp substrate", "format": "in vitro ADME", "experimental": "(§1) A Caco-2 permeability assay was performed on Compound D136."}, "[2]": {"conditions": "mouse, in vivo"}, "Caco-2": {"system": "Caco-2", "experiment": "Caco-2 permeability assay", "format": "in vitro ADME", "experimental": "as §1"}, "[3]": {"experiment": "Caco-2 permeability assay", "format": "in vitro ADME", "conditions": "human", "experimental": "as §1"}, "[4]": {"conditions": "Table 36, PO plasma, 7.53 mg/kg"}, "[5]": {"conditions": "Table 38, IV plasma, 1.13 mg/kg"}, "[6]": {"conditions": "rat, Table 36, PO plasma, 7.53 mg/kg"}, "[7]": {"conditions": "rat, Table 38, IV plasma, 1.13 mg/kg"}},
  "note": "Several values for one entry are separate records, joined by “and”; a condition that tells them apart may be missing. Equal values may be shown once.",
  "data": [
    {"smiles": "COCCN[C@H]1CS(=O)(=O)C[C@@H]1S(=O)(=O)c1ccc(Cl)cc1", "note": "[Compound D136]", "values": [
      {"measurement": "K el", "setting": "PK in rat plasma; [4]", "value": 0.75, "unit": "h⁻¹"},
      {"measurement": "T_½", "setting": "PK in rat plasma; [4]", "value": 55.8, "unit": "min"},
      {"measurement": "AUV last", "setting": "PK in rat plasma; Table 37, IV plasma, 1.13 mg/kg", "value": 239},
      {"measurement": "AUV last", "setting": "PK in rat plasma; Table 37, PO plasma, 7.53 mg/kg", "value": 197},
      {"measurement": "Fabs, %", "setting": "PK in rat plasma; Table 37, from AUCinf", "value": 12.9, "unit": "%"},
      {"measurement": "Fabs, %", "setting": "PK in rat plasma; Table 37, from AUV last", "value": 12.3, "unit": "%"},
      {"measurement": "Cl/F", "setting": "PK in rat plasma; [5]", "value": 80.23, "unit": "mL/min/kg"},
      {"measurement": "K el", "setting": "PK in rat plasma; [5]", "value": 2.11, "unit": "h⁻¹"},
      {"measurement": "T_½", "setting": "PK in rat plasma; [5]", "value": 19.8, "unit": "min"},
      {"measurement": "bioavailability", "setting": "PK in rat plasma; plasma, po, PK in mouse and dog, species of the value not stated, read-out: orally bioavailable (absorbance)", "value": "~33", "unit": "%"},
      {"measurement": "AUC(0-inf)", "setting": "PK in rat plasma; [6]", "value": 208, "unit": "ng·h/mL"},
      {"measurement": "AUC(0-t)", "setting": "PK in rat plasma; [6]", "value": 197, "unit": "ng·h/mL"},
      {"measurement": "CL/F", "setting": "PK in rat plasma; [6]", "value": 866, "unit": "mL/min/kg"},
      {"measurement": "Cmax", "setting": "PK in rat plasma; [6]", "value": 165, "unit": "ng/mL"},
      {"measurement": "MRT inf", "setting": "PK in rat plasma; [6]", "value": 79.8, "unit": "min"},
      {"measurement": "MRT last", "setting": "PK in rat plasma; [6]", "value": 67.8, "unit": "min"},
      {"measurement": "Tmax", "setting": "PK in rat plasma; [6]", "value": 30, "unit": "min"},
      {"measurement": "Vd/F", "setting": "PK in rat plasma; rat, Table 36, PO plasma, 7.53 mg/kg, read-out: Vz/F", "value": 66.3, "unit": "L/kg"},
      {"measurement": "AUC(0-inf)", "setting": "PK in rat plasma; rat, Table 37, IV plasma, 1.13 mg/kg", "value": 242, "unit": "ng·h/mL"},
      {"measurement": "AUC(0-t)", "setting": "PK in rat plasma; [7]", "value": 239, "unit": "ng·h/mL"},
      {"measurement": "Cmax", "setting": "PK in rat plasma; [7]", "value": 524, "unit": "ng/mL"},
      {"measurement": "MRT inf", "setting": "PK in rat plasma; [7]", "value": 22.2, "unit": "min"},
      {"measurement": "MRT last", "setting": "PK in rat plasma; [7]", "value": 21, "unit": "min"},
      {"measurement": "Tmax", "setting": "PK in rat plasma; [7]", "value": 4.98, "unit": "min"},
      {"measurement": "stability in human plasma", "setting": "[1]", "value": "Stable"},
      {"measurement": "%, Bound", "setting": "PPB; Human", "value": 51.6, "unit": "%"},
      {"measurement": "%, Free (50% pI)", "setting": "PPB; Human", "value": 65.3, "unit": "%"},
      {"measurement": "%, Free (recalc from 50% pI)", "setting": "PPB; Human", "value": 48.4, "unit": "%"},
      {"measurement": "Permeability, %", "setting": "PPB; Human", "value": 94, "unit": "%"},
      {"measurement": "%, Bound", "setting": "PPB; Rat", "value": 52.0, "unit": "%"},
      {"measurement": "%, Free (50% pI)", "setting": "PPB; Rat", "value": 64.9, "unit": "%"},
      {"measurement": "%, Free (recalc from 50% pI)", "setting": "PPB; Rat", "value": 48.0, "unit": "%"},
      {"measurement": "Permeability, %", "setting": "PPB; Rat", "value": 94, "unit": "%"},
      {"measurement": "recovery", "setting": "PPB; human", "value": 56.9, "unit": "%"},
      {"measurement": "recovery", "setting": "PPB; rat", "value": 122, "unit": "%"},
      {"measurement": "stability in rat plasma", "setting": "Stability in rat plasma", "value": "Stable"},
      {"measurement": "substrate for P-gp (MDR1)", "setting": "P-gp (MDR1); Caco-2 asymmetry", "value": "not a substrate"},
      {"measurement": "efflux ratio", "setting": "P-gp (MDR1); human, Caco-2, Mean Papp B-A / A-B, read-out: Asymmetry Index", "value": 1.5},
      {"measurement": "MTD and acute toxicity", "setting": "[2]", "value": "no toxicity was observed"},
      {"measurement": "Caco-2 permeability", "setting": "Caco-2", "value": "highly permeable"},
      {"measurement": "Papp A-B", "setting": "Caco-2; individual replicates", "value": "36.0 10^−6 cm/s and 33.1 10^−6 cm/s"},
      {"measurement": "Papp B-A", "setting": "Caco-2; individual replicates", "value": "54.6 10^−6 cm/s and 50.9 10^−6 cm/s"},
      {"measurement": "Papp A→B", "setting": "[3]; Caco-2, Mean", "value": 34.2, "unit": "×10⁻⁶ cm/s"},
      {"measurement": "Papp B→A", "setting": "[3]; Caco-2, Mean", "value": 51.1, "unit": "×10⁻⁶ cm/s"},
      {"measurement": "Papp A→B", "setting": "[3]; Caco-2, individual replicates", "value": 33.6, "unit": "×10⁻⁶ cm/s"},
      {"measurement": "Papp B→A", "setting": "[3]; Caco-2, individual replicates", "value": 47.9, "unit": "×10⁻⁶ cm/s"}
    ]}
  ]
}
